The structures appear in SMILES notation. Marks after values point to notes of the source that are not given here.

In test [1] the test system is male Wistar rats. Nature of the test: In vivo anti-inflammation test of formulation TSB-9-W1 (carrageenan hind paw edema). Particulars: aspirin oral 150 mg/Kg, three hours after carrageenan injection. The method, then:
Briefly, male Wistar rats with a weight of around 160±5 g were randomly divided into four groups (n=5 for each group) including two experimental groups ([…]1-1 group and TSB-9-W1-2 group) and two control groups (i.e., a vehicle normal control group and an aspirin positive control group). […] Three hours after the intraplantar injection, the volumes of the left and right hind paws of each rat were measured using a plethysmometer (#7150, UGO Basile, Italy) including a water cell (a diameter of 25 mm; #7157, UGO Basile, Italy), and the hind paw edema volume was expressed as the difference between the measured volumes of the left and right hind paws. […] D=(E-F)/E×100 (2) wherein D=inhibition rate of hind paw edema, • E=the average value of the hind paw edema volumes in the vehicle normal control group of rats, and • F=the average value of the hind paw edema volumes in each group of rats.
(The carrageenan paw model is a standard test of acute inflammation.)

In test [2] the test system is male Wistar rats. Nature of the test: In vivo anti-inflammation test of the fractionated products TSB-14A to TSB-14E (carrageenan hind paw edema). Particulars: aspirin positive control, oral, three hours after carrageenan injection. The method, then:
Briefly, male Wistar rats with a weight of around 160±5 g were randomly divided into four groups (n=5 for each group) including two experimental groups (i.e., TSB-9-W1-1 group and TSB-9-W1-2 group) and two control groups (i.e., a vehicle normal control group and an aspirin positive control group). After overnight fasting, the rats in the TSB-9-W1-1 and the TSB-9-W1-2 groups were orally administered with the formulation TSB-9-W1 at a dose of 10 mg/Kg and a dose of 30 mg/Kg, respectively, the rats in the vehicle normal control group were orally administered with 2% Tween 80 at a dosing volume of 10 mL/Kg, and the rats in the aspirin positive control group were orally administered with aspirin at a dose of 150 mg/Kg. One hour later, 0.1 mL of a 1% carrageenan suspension was intraplantarly injected into the right hind paws of rats in each group. Three hours after the intraplantar injection, the volumes of the left and right hind paws of each rat were measured using a plethysmometer (#7150, UGO Basile, Italy) including a water cell (a diameter of 25 mm; #7157, UGO Basile, Italy), and the hind paw edema volume was expressed as the difference between the measured volumes of the left and right hind paws. Inhibition rate (%) of hind paw edema in each group of rats was calculated using the following Equation (2): […]

In the case of `CC(=O)Oc1ccccc1C(=O)O` [Aspirin, aspirin], the “Inhibition rate of hind paw edema (%)” value in test [1] is reported as 40* %; in test [2] it was 37* %.

The values are drawn from patent US20110305784A1, “Fractionated products obtained from gamboge resin, and medical uses of the same” (priority 2010, published 2011).
